Values quoted from earlier work, collected in patent US8377904B2, “Composition and method for use in cartilage affecting conditions” (Hill's Pet Nutrition, Inc., priority 2004, dated 2013).

Tested on: pain of osteoarthritis

C[S+](CC[C@H](N)C(=O)[O-])C[C@H]1O[C@@H](n2cnc3c(N)ncnc32)[C@H](O)[C@@H]1O (some centres unmarked) [SAMe, S-adenosyl-L methionine]
Outcome compared with non-steroidal anti-inflammatory medication (meta analysis): not associated with statistically significant difference in outcomes
effective size in favor of SAMe compared to a placebo (one randomized clinical trial): 0.20
